From patent EP4570245A1, “COMBINED AGENTS WITH SYNERGISTIC EFFECT AGAINST GLIOMAS” (Eberhard Karls Universität Tübingen Medizinische Fakultät, priority 2023, dated 2025)

Assays:
[1] = system: LN18 and T98G glioma cell lines; assay: Clonogenic survival assay of shRNA knockdown cells under CCNU treatment; type: cell-based
Procedure: The inventors seeded the cells one day prior to treatment. The inventors then treated the cells with the specified concentrations in serum-free medium for 24 hours. Afterward, they changed the medium back to one containing FCS and incubated the cells for a period ranging from 14 to 21 days. The inventors stained the colonies using 0.5% w/v crystal violet and counted them. Measurements were normalized to the respective vehicle control wells.
Based on the CRISPR/Cas9 screen result a loss of the Fanconi anemia DNA repair pathway should increase the effect of CCNU treatment. Therefore, the inventors induced an shRNA knockdown in LN18 and T98G glioma cell lines for FANCA or FANCD2. These knockdown cell lines were treated in clonogenic survival assays with CCNU in comparison to a control cell line transduced with a vector coding for an shRNA against Luciferase (Figure 2).

[2] = target: T1, RMI (RecQ-mediated genome instability protein) core complex/MM2 interaction (Homo sapiens, UniProt Q96E14+Q9H9A7); settings: inhibitor of RMI core complex/MM2 interaction; MM2 is the binding site of RMI complex on FANCM; cited from earlier work
T1 sequence (Q9H9A7 473-625 limits assumed): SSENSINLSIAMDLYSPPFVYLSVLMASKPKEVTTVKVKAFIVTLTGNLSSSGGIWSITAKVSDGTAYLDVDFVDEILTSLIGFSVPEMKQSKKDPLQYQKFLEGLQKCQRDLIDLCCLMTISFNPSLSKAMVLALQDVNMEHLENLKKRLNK
T1 sequence (Q96E14 1-147): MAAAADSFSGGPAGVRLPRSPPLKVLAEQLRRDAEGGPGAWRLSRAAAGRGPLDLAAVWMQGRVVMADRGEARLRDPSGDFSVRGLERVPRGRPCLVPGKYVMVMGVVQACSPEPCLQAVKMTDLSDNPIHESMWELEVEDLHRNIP

Compound | sensitivity to CCNU treatment ([1]; FANCA shRNA knockdown cell lines compared to the luciferase shRNA control) | sensitivity to CCNU treatment ([1]; FANCD2 shRNA knockdown cell lines compared to the luciferase shRNA control) | IC50 [2] [µM]
O=NN(CCCl)C(=O)NC1CCCCC1 [CCNU, lomustine] | more sensitive | more sensitive | 
CCOC(=O)N1CCN(C(c2ccccn2)c2c(-c3ccccc3)n(O)c3ccccc23)CC1 (stereo not drawn) [PIP-199] |  |  | 36
